# Data: patent US20060167006A1, “Method of treatment” (priority 2003, published 2006)
# Experiments:
# Assay type in all cases: cell-based, human
# [1] = tested on: Mia-PaCa-2 cells; experiment: Growth factor-induced proliferation (MTT), Mia-PaCa-2
# Description: (§1) Cell culture and MTT assay: Human pancreatic cancer cell lines are routinely grown in DMEM (Colo-357 and Mia-PaCa-2) or RPMI (Aspc-1, BxPc-3, Capan-1, and T3M4) supplemented with 10% FBS, 100 U/ml penicillin, and 100 μg/ml streptomycin (complete medium). To assess cell proliferation, the MTT test is employed. […] After 48 or 72 hours of incubation, 3-(4,5-methylthiazol-2-yl)-2,5-diphenyl-tetrazolium bromide (MTT) is added (50 μg/well) for 4 hours. Formazan products are solubilized with acidic isopropanol, and the optical density is measured at 570 nm. […] All experiments are performed in triplicate.
# (§2) EGF-induced proliferation of both Mia-PaCa-2 and T3M4 cell lines in a dose-dependent manner is seen with maximal effects of +72% ±7.5% (Mia-PaCa-2) and +52% ±23% (T3M4). […] FGF-2 markedly stimulates cell growth in Mia-PaCa-2 cell lines with maximal effects of +79% ±6%, and only slightly stimulated T3M4 cell lines, with maximal effects of +7% ±4%. […] Both cell lines are less sensitive to IGF-1 stimulation compared with EGF and FGF-2, with maximal effects of +24% ±2% in Mia-PaCa-2 and +17% ±4% in. T3M4.
# [2] = tested on: MAPK; experiment: Western blot of MAPK phosphorylation in growth factor-conditioned cells; conditions: Mia-PaCa-2 and T3M4 cells, data not shown
# Description: Western blot analysis: Cell culture monolayers are washed twice with ice-cold PBS and lysed with buffer containing Tris-HCl (50 mM, pH 7.4), NP-40 (1%), Na-deoxycholate (0.25%), NaCl (150 mM), EDTA (1 mM), PMSF (1 mM), Na3VO4 (1 mM), NaF (1 mM) and one tablet of complete mini-EDTA-free protease inhibitor cocktail (in 10 ml buffer). Protein concentration is determined by the BCA protein assay (Pierce Chemical Co., Rockford, Ill., USA). 30 μg of cell lysates are separated on SDS-polyacrylamide gels and electroblotted onto nitrocellulose membranes. Membranes are then incubated in blocking solution (5% nonfat-milk in 20 mM Tris-HCl, 150 mM NaCl, 0.1% Tween-20) (TBS-T), followed by incubation with the indicated antibodies at 4° C. overnight. The membranes are then washed in TBS-T and incubated with HRPO-conjugated secondary antibodies for 1 hour at room temperature. Antibody detection is performed with an enhanced chemiluminescence reaction. Statistical analysis: Results are expressed as mean±SEM. For statistical analysis, the Student's t-test is used. Significance is defined as p<0.05.
# [3] = tested on: T3M4 cells; experiment: Growth factor-induced proliferation (MTT), T3M4
# Description: as §1, §2
# [4] = tested on: BxPc-3, Colo-357 and Capan-1; experiment: PDGF effect on cell growth, three additional cell lines; conditions: BxPc-3, Colo-357 and Capan-1, growth factor alone
# Description: as §1, §2
Substance,"Induction of cell proliferation by growth factor ([1]; Mia-PaCa-2, growth factor alone)",Induction of PDGF and MAPK kinase phosphorylation [2],"Induction of cell proliferation by growth factor ([3]; T3M4, growth factor alone)",Effect of growth factor on cell growth [4],"Maximal effect of growth factor on cell growth ([1]; Mia-PaCa-2, growth factor alone (absence of Compound I), 72 hours, MTT)","Maximal effect of growth factor on cell growth ([3]; T3M4, growth factor alone (absence of Compound I), 72 hours, MTT)"
PDGF,does not induce cell proliferation,does not induce PDGF and MAPK kinase phosphorylation,does not induce cell proliferation,no effect on cell growth,,
"EGF: epidermal growth factor, EGF from Upstate Biotechnology",,,,,+72% ±7.5,+52% ±23
